The test system of the test is NL-RLuc virus (recombinant NL4-3 HIV with Renilla Luciferase gene). Briefly: Inhibition of HIV replication (NL-RLuc virus in MT-2 cells, luciferase readout). The test is classed as cell-based, Human immunodeficiency virus (HIV). Conditions: MT2, 120 h. Put shortly: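 MT-2 cells infected with NL4-3-derived virus carrying Renilla luciferase in place of part of nef, grown 5 days with serial compound dilutions in RPMI 1640/10% FBS. Virus growth read as luciferase expression. EC50 from median effect equation, at least 2 experiments.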
Regarding `CC1(C)CCN(c2c(-c3ccc4c(c3)CCN(c3nccc(N5CCOCC5)n3)C4)cnc(Cl)c2[C@H](OC(C)(C)C)C(=O)O)CC1` [Example 148, (S)-2-(tert-Butoxy)-2-(2-chloro-4-(4,4-dimethylpiperidin-1-yl)-5-(2-(4-morpholinopyrimidin-2-yl)-1,2,3,4-tetrahydroisoquinolin-6-yl)pyridin-3-yl)acetic Acid], the EC50 was 0.2 nM.

For `CC1(C)CCN(c2c(-c3ccc4c(c3)CCN(c3ncnc5c3oc3ccccc35)C4)c(CO)nc(Cl)c2[C@H](OC(C)(C)C)C(=O)O)CC1` [Example 95, (S)-2-(5-(2-(Benzofuro[3,2-d]pyrimidin-4-yl)-1,2,3,4-tetrahydroisoquinolin-6-yl)-2-chloro-4-(4,4-dimethylpiperidin-1-yl)-6-(hydroxymethyl)pyridin-3-yl)-2-(tert-butoxy)acetic acid], the EC50 turned out to be 1 nM. Then `Cc1nc(NCCCN2CCN(C)CC2)c(-c2ccc3c(c2)CCN(c2ncnc4c2oc2ccccc24)C3)c(N2CCC(C)(C)CC2)c1[C@H](OC(C)(C)C)C(=O)O` [Example 16, (S)-2-(5-(2-(Benzofuro[3,2-d]pyrimidin-4-yl)-1,2,3,4-tetrahydroisoquinolin-6-yl)-4-(4,4-dimethylpiperidin-1-yl)-2-methyl-6-((3-(4-methylpiperazin-1-yl)propyl)amino)pyridin-3-yl)-2-(tert-butoxy)acetic Acid], with 2 nM.

For `Cc1cccc(Cl)c1CN1CCc2cc(-c3c(NCCn4cccn4)nc(C)c([C@H](OC(C)(C)C)C(=O)O)c3N3CCC(C)(C)CC3)ccc2C1` [Example 7, (S)-2-(6-((2-(1H-Pyrazol-1-yl)ethyl)amino)-5-(2-(2-chloro-6-methylbenzyl)-1,2,3,4-tetrahydroisoquinolin-6-yl)-4-(4,4-dimethylpiperidin-1-yl)-2-methylpyridin-3-yl)-2-(tert-butoxy)acetic Acid], the concentration giving a half-maximal response (EC50) was determined as 13 nM. The value for `Cc1nc(C#N)c(-c2ccc3c(c2)CCN(c2ncnc4c2oc2ccccc24)C3)c(N2CCC(C)(C)CC2)c1[C@H](OC(C)(C)C)C(=O)O` [Example 50] was 4 nM; that for `Cc1cccc(Cl)c1CN1CCc2cc(-c3c(NCCN(C)C)nc(C)c([C@H](OC(C)(C)C)C(=O)O)c3N3CCC(C)(C)CC3)ccc2C1` [Example 3, (S)-2-(tert-Butoxy)-2-(5-(2-(2-chloro-6-methylbenzyl)-1,2,3,4-tetrahydroisoquinolin-6-yl)-6-((2-(dimethylamino)ethyl)amino)-4-(4,4-dimethylpiperidin-1-yl)-2-methylpyridin-3-yl)acetic Acid] was 5 nM. Turning to `Cc1nc(C)c([C@H](OC(C)(C)C)C(=O)O)c(N2CCC(C)(C)CC2)c1-c1ccc2c(c1)CCN(c1cc(N3CCCC(C)(C)C3)ncn1)C2` [Example 139, (S)-2-(tert-Butoxy)-2-(4-(4,4-dimethylpiperidin-1-yl)-5-(2-(6-(3,3-dimethylpiperidin-1-yl)pyrimidin-4-yl)-1,2,3,4-tetrahydroisoquinolin-6-yl)-2,6-dimethylpyridin-3-yl)acetic Acid], the EC50 was found to be 4 nM. Regarding `COc1cccc(-c2cc(N3CCc4cc(-c5c(C)nc(C)c([C@H](OC(C)(C)C)C(=O)O)c5N5CCC(C)(C)CC5)ccc4C3)ncn2)c1` [Example 79, (S)-2-(tert-Butoxy)-2-(4-(4,4-dimethylpiperidin-1-yl)-5-(2-(6-(3-methoxyphenyl)pyrimidin-4-yl)-1,2,3,4-tetrahydroisoquinolin-6-yl)-2,6-dimethylpyridin-3-yl)acetic Acid], the EC50 was determined as 11 nM. The value for `Cc1nc(C)c([C@H](OC(C)(C)C)C(=O)O)c(N2CCC(C)(C)CC2)c1-c1ccc2c(c1)CCN(c1cc(N3CCOCC3)nc(N3CCOCC3)n1)C2` [Example 86, (S)-2-(tert-Butoxy)-2-(4-(4,4-dimethylpiperidin-1-yl)-5-(2-(2,6-dimorpholinopyrimidin-4-yl)-1,2,3,4-tetrahydroisoquinolin-6-yl)-2,6-dimethylpyridin-3-yl)acetic Acid] was 4 nM; that for `Cc1nc(C)c([C@H](OC(C)(C)C)C(=O)O)c(N2CCC(C)(C)CC2)c1-c1ccc2c(c1)CCN(c1ncnc(N3CCC(CCO)CC3)n1)C2` [Example 63, (S)-2-(tert-Butoxy)-2-(4-(4,4-dimethylpiperidin-1-yl)-5-(2-(4-(4-(2-hydroxyethyl)piperidin-1-yl)-1,3,5-triazin-2-yl)-1,2,3,4-tetrahydroisoquinolin-6-yl)-2,6-dimethylpyridin-3-yl)acetic Acid] was 4 nM.

For the compound `Cc1cccc(Cl)c1CN1CCc2cc(-c3c(CNCCCc4ccccc4)nc(C)c([C@H](OC(C)(C)C)C(=O)O)c3N3CCC(C)(C)CC3)ccc2C1` [Example 154, (S)-2-(tert-Butoxy)-2-(5-(2-(2-chloro-6-methylbenzyl)-1,2,3,4-tetrahydroisoquinolin-6-yl)-4-(4,4-dimethylpiperidin-1-yl)-2-methyl-6-(((3-phenylpropyl)amino)methyl)pyridin-3-yl)acetic Acid], the EC50 was found to be 97 nM. The value for `Cc1nc(CO)c(-c2ccc3c(c2)CCN(c2nccc(-c4cnccn4)n2)C3)c(N2CCC(C)(C)CC2)c1[C@H](OC(C)(C)C)C(=O)O` [Example 165, (S)-2-(tert-Butoxy)-2-(4-(4,4-dimethylpiperidin-1-yl)-6-(hydroxymethyl)-2-methyl-5-(2-(4-(pyrazin-2-yl)pyrimidin-2-yl)-1,2,3,4-tetrahydroisoquinolin-6-yl)pyridin-3-yl)acetic Acid] was 2 nM.

As for `CCOc1cc(N2CCc3cc(-c4c(C)nc(C)c([C@H](OC(C)(C)C)C(=O)O)c4N4CCC(C)(C)CC4)ccc3C2)nc(C)n1` [Example 65, (S)-2-(tert-Butoxy)-2-(4-(4,4-dimethylpiperidin-1-yl)-5-(2-(6-ethoxy-2-methylpyrimidin-4-yl)-1,2,3,4-tetrahydroisoquinolin-6-yl)-2,6-dimethylpyridin-3-yl)acetic Acid], the EC50 was determined as 19 nM. The value for `Cc1cn(-c2cc(N3CCc4cc(-c5c(C)nc(C)c([C@H](OC(C)(C)C)C(=O)O)c5N5CCC(C)(C)CC5)ccc4C3)ncn2)cn1` [Example 132, (S)-2-(tert-Butoxy)-2-(4-(4,4-dimethylpiperidin-1-yl)-2,6-dimethyl-5-(2-(6-(4-methyl-1H-imidazol-1-yl)pyrimidin-4-yl)-1,2,3,4-tetrahydroisoquinolin-6-yl)pyridin-3-yl)acetic Acid] was 2 nM. The value for `Cc1cc(F)ccc1CN1CCc2cc(-c3cnc(Cl)c([C@H](OC(C)(C)C)C(=O)O)c3N3CCC(C)(C)CC3)ccc2C1` [Example 113, (S)-2-(tert-Butoxy)-2-(2-chloro-4-(4,4-dimethylpiperidin-1-yl)-5-(2-(4-fluoro-2-methylbenzyl)-1,2,3,4-tetrahydroisoquinolin-6-yl)pyridin-3-yl)acetic Acid] was 3 nM.

For the origin of these results see patent US20200016136A1 (VIIV HEALTHCARE UK (NO. 5) LIMITED, priority 2017, published 2020).
